Measured values: patent publication US12583861B2, “Derivatives of imidazo[4,5-d]pyridazine, their preparation and their therapeutic application” (SANOFI, priority 2021, dated 2026)

target: T1, human TLR8 (Homo sapiens, UniProt Q9NR97); assay: HEK-Blue hTLR8 reporter cell assay (SEAP, NF-kB/AP-1) for stimulation of human TLR8; assay type: cell-based; conditions: HEK-Blue hTLR8 cells, 24 h incubation, SEAP readout; read-out: TLR8_EC50
T1 construct: host or cells: HEK293 (HEK-Blue hTLR8)
T1 sequence (Q9NR97 27-1041): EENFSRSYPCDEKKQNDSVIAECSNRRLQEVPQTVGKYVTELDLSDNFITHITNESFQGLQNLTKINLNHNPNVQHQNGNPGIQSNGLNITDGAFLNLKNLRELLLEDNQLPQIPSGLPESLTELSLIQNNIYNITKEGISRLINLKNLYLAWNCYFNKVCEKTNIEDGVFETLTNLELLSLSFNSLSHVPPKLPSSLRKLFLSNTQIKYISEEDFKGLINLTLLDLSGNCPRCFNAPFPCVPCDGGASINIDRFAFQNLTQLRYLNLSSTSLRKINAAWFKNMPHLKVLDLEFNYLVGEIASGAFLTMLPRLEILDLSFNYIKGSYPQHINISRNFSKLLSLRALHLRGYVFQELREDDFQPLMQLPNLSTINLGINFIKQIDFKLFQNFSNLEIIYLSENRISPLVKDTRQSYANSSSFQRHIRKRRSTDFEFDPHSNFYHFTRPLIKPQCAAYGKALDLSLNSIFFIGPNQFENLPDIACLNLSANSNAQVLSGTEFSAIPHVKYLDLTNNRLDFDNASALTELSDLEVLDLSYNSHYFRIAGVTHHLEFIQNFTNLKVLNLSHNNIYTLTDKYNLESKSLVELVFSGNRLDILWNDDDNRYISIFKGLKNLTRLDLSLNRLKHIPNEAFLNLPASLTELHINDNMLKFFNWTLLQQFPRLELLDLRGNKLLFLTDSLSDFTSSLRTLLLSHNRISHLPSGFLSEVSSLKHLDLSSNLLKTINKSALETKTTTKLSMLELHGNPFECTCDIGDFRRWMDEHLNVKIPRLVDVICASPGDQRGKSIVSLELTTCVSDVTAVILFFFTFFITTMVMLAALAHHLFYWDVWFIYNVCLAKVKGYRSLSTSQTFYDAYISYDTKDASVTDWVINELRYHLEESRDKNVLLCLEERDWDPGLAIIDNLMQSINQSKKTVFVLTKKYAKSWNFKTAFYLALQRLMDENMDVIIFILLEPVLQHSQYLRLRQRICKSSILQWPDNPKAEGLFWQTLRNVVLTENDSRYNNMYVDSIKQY
Method in brief: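 HEK293 cells carrying hTLR8 and a SEAP reporter driven by NF-κB/AP-1 sites were seeded at 3.10E4 cells/well and held 18 to 24 h at 37° C., 5% CO2 before compound addition. Supernatant SEAP measured with QUANTI-Blue™.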

EC50 [µM] | SMILES
> 20 | CCCCc1nc2c(N)nnc(OCCOC)c2n1Cc1ccc(OC)cc1 [Compound 4, 2-butyl-1-(4-methoxybenzyl)-7-(2-methoxyethoxy)-1H-imidazo[4,5-d]pyridazin-4-amine]
14.6 | CCCCc1nc2c(N)nnc(OC(C)C)c2n1C[C@H]1CCC[C@@H](N)C1 (racemic) [Compound 23, 1-(((1S,3R)-3-aminocyclohexyl)methyl)-2-butyl-7-isopropoxy-1H-imidazo[4,5-d]pyridazin-4-amine (and enantiomer)]
> 20 | CCCCc1nc2c(N)nnc(C(C)C)c2n1Cc1ccc(OC)cc1 [Compound 18, 2-butyl-7-isopropyl-1-(4-methoxybenzyl)-1H-imidazo[4,5-d]pyridazin-4-amine]
> 20 | CCCCc1nc2c(N)nnc(OC(C)C)c2n1Cc1ccccn1 [Compound 75, 2-butyl-7-isopropoxy-1-(pyridin-2-ylmethyl)-1H-imidazo[4,5-d]pyridazin-4-amine]
> 20 | CCCCc1nc2c(N)nnc(N3CCCC3)c2n1Cc1ccc(OC)cc1 [Compound 10, 2-butyl-1-(4-methoxybenzyl)-7-(pyrrolidin-1-yl)-1H-imidazo[4,5-d]pyridazin-4-amine]
> 20 | CCCCc1nc2c(N)nnc(SC(C)C)c2n1Cc1ccc(OC)cc1 [Compound 3, 2-butyl-7-(isopropylthio)-1-(4-methoxybenzyl)-1H-imidazo[4,5-d]pyridazin-4-amine]
1.37 | CCCCc1nc2c(N)nnc(OC(C)C)c2n1Cc1ccc(CN)cc1 [Compound 21, 1-(4-(aminomethyl)benzyl)-2-butyl-7-isopropoxy-1H-imidazo[4,5-d]pyridazin-4-amine]
> 20 | CCCCc1nc2c(N)nnc(OC3CCCC3)c2n1Cc1ccc(OC)cc1 [Compound 9, 2-butyl-7-(cyclopentyloxy)-1-(4-methoxybenzyl)-1H-imidazo[4,5-d]pyridazin-4-amine]
> 20 | C=C(C)c1nnc(N)c2nc(CCCC)n(Cc3ccc(OC)cc3)c12 [Compound 17, 2-butyl-1-(4-methoxybenzyl)-7-(prop-1-en-2-yl)-1H-imidazo[4,5-d]pyridazin-4-amine]
> 20 | CCCCc1nc2c(N)nnc(OC(C)C)c2n1Cc1ccc(CO)cc1 [Compound 35, (4-((4-amino-2-butyl-7-isopropoxy-1H-imidazo[4,5-d]pyridazin-1-yl)methyl)phenyl)methanol]
> 20 | CCCCc1nc2c(N)nnc(NCCOC)c2n1Cc1ccc(OC)cc1 [Compound 49, 2-butyl-1-(4-methoxybenzyl)-N7-(2-methoxyethyl)-1H-imidazo[4,5-d]pyridazine-4,7-diamine]
7.19 | CCCCc1nc2c(N)nnc(N(C)C)c2n1C [Compound 41, 2-butyl-N7,N7,1-trimethyl-1H-imidazo[4,5-d]pyridazine-4,7-diamine]
7.56 | CCCCc1nc2c(N)nnc(N3CCC(c4ccccc4)C3)c2n1C (stereo not shown) [Compound 89, 2-butyl-1-methyl-7-(3-phenylpyrrolidin-1-yl)-1H-imidazo[4,5-d]pyridazin-4-amine]
> 20 | CCCCc1nc2c(N)nnc(NC(C)C)c2n1Cc1ccc(OC)cc1 [Compound 2, 2-butyl-N7-isopropyl-1-(4-methoxybenzyl)-1H-imidazo[4,5-d]pyridazin-4,7-diamine]
> 20 | CCCCc1nc2c(N)nnc(N(C)C)c2n1Cc1ccc(OC)cc1 [Compound 71, 2-butyl-1-(4-methoxybenzyl)-N7,N7-dimethyl-1H-imidazo[4,5-d]pyridazine-4,7-diamine]
> 20 | CCCCc1nc2c(N)nnc(OCC)c2n1Cc1ccc(OC)cc1 [Compound 48, 2-butyl-7-ethoxy-1-(4-methoxybenzyl)-1H-imidazo[4,5-d]pyridazin-4-amine]
> 20 | CCCCc1nc2c(N)nnc(OC(C)C)c2n1Cc1ccc(OC)cc1 [Compound 1, 2-butyl-7-isopropoxy-1-(4-methoxybenzyl)-1H-imidazo[4,5-d]pyridazin-4-amine]
> 20 | C=CCOc1nnc(N)c2nc(CCCC)n(Cc3ccc(OC)cc3)c12 [Compound 6, 7-(allyloxy)-2-butyl-1-(4-methoxybenzyl)-1H-imidazo[4,5-d]pyridazin-4-amine]
0.336 | CCCCc1nc2c(N)nnc(OC(C)C)c2n1Cc1cccc(CN)c1 [Compound 33, 1-(3-(aminomethyl)benzyl)-2-butyl-7-isopropoxy-1H-imidazo[4,5-d]pyridazin-4-amine 2,2,2-trifluoroacetate]
2.61 | CCCCc1nc2c(N)nnc(OC(C)C)c2n1Cc1ccc(CN)cc1 [Compound 22, 1-(4-(aminomethyl)benzyl)-2-butyl-7-isopropoxy-1H-imidazo[4,5-d]pyridazin-4-amine 2,2,2-trifluoroacetate]
> 20 | CCCCc1nc2c(N)nnc(OC(C)C)c2n1Cc1ccc(C=O)cc1 [Compound 34, 4-((4-amino-2-butyl-7-isopropoxy-1H-imidazo[4,5-d]pyridazin-1-yl)methyl)benzaldehyde]
> 20 | CCCCc1nc2c(N)nnc(-c3cc[nH]c3)c2n1Cc1ccc(OC)cc1 [Compound 14, 2-butyl-1-(4-methoxybenzyl)-7-(1H-pyrrol-3-yl)-1H-imidazo[4,5-d]pyridazin-4-amine]
